Patent US9113629B2, “4-amino-6-(4-substituted-phenyl)-picolinates and 6-amino-2-(4-substituted-phenyl)-pyrimidine-4-carboxylates and their use as herbicides” (DOW AGROSCIENCES LLC, priority 2013, dated 2015)
Where two headings read alike, the source gives them in different places.

Tests used:
[1] = tested on: Key Broadleaf Weed and Crop Species; assay: Post-emergent Test II herbicidal activity (Table 5); type: in vivo; conditions: post-emergence, 336 h, post-emergent, 14 days after application; for pest or weed control at 70 g/ha: 70 g ai/ha; for pest or weed control at 140 g/ha: 140 g ai/ha
Summary of the method: (§1)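 Percent injury, 0 (none) to 100 (complete kill), was judged visually 14 d after spraying young plants at the first or second true leaf stage with compound in an acetone/DMSO aqueous carrier at 187 L/ha. Plants were kept in a greenhouse at 23–29 °C by day.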

[2] = tested on: Key Grass and Sedge Weeds as well as Grass Crops; assay: Post-emergent Test II herbicidal activity (Table 6); type: in vivo; conditions: post-emergence, 336 h; for pest or weed control at 70 g/ha: application rate 70 g ai/ha; for pest or weed control at 140 g/ha: application rate 140 g ai/ha
Summary of the method: as §1

[3] = ABUTH: velvetleaf (Abutilon theophrasti), read-out: Visual Growth Reduction (%) 14 Days After Application ABUTH
[4] = AMARE: redroot pigweed (Amaranthus retroflexus), read-out: Visual Growth Reduction (%) 14 Days After Application AMARE
[5] = BRSNN: oilseed-rape, canola (Brassica napus), read-out: Visual Growth Reduction (%) 14 Days After Application BRSNN
[6] = CHEAL: lambsquarters (Chenopodium album), read-out: Visual Growth Reduction (%) 14 Days After Application CHEAL
[7] = EPHHL: wild poinsettia (Euphorbia heterophylla), read-out: Visual Growth Reduction (%) 14 Days After Application EPHHL
[8] = HELAN: sunflower (Helianthus annuus), read-out: Visual Growth Reduction (%) 14 Days After Application HELAN
[9] = VIOTR: wild pansy (Viola tricolor), read-out: Visual Growth Reduction (%) 14 Days After Application VIOTR
[10] = Triticum aestivum, TRZSS (wheat), read-out: Visual Growth Reduction (%) 14 Days After Application, TRZSS
[11] = CYPES: yellow nutsedge (Cyperus esculentus), read-out: Visual Growth Reduction (%) 14 Days After Application, CYPES
[12] = DIGSA: crabgrass (Digitaria sanguinalis), read-out: Visual Growth Reduction (%) 14 Days After Application, DIGSA
[13] = ECHCG: barnyardgrass (Echinochloa crus-galli), read-out: Visual Growth Reduction (%) 14 Days After Application, ECHCG
[14] = ORYSA: rice (Oryza sativa), read-out: Visual Growth Reduction (%) 14 Days After Application, ORYSA
[15] = SETFA: giant foxtail (Setaria faberi), read-out: Visual Growth Reduction (%) 14 Days After Application, SETFA
[16] = SORVU: grain sorghum (Sorghum vulgare), read-out: Visual Growth Reduction (%) 14 Days After Application, SORVU
[17] = ZEAMX: maize, corn (Zea mays), read-out: Visual Growth Reduction (%) 14 Days After Application, ZEAMX

SMILES | pest or weed control at 70 g/ha [1, 3] | pest or weed control at 140 g/ha [1, 3] | pest or weed control at 70 g/ha [1, 4] | pest or weed control at 140 g/ha [1, 4] | pest or weed control at 70 g/ha [1, 5] | pest or weed control at 140 g/ha [1, 5] | pest or weed control at 70 g/ha [1, 6] | pest or weed control at 140 g/ha [1, 6] | pest or weed control at 70 g/ha [1, 7] | pest or weed control at 140 g/ha [1, 7] | pest or weed control at 70 g/ha [1, 8] | pest or weed control at 140 g/ha [1, 8] | pest or weed control at 70 g/ha [1, 9] | pest or weed control at 140 g/ha [1, 9] | pest or weed control at 140 g/ha [2, 10] | pest or weed control at 70 g/ha [2, 11] | pest or weed control at 140 g/ha [2, 11] | pest or weed control at 70 g/ha [2, 12] | pest or weed control at 140 g/ha [2, 12] | pest or weed control at 70 g/ha [2, 13] | also measured
Nc1c(F)c(-c2cc(F)c(I)cc2F)nc(C(=O)O)c1Cl [Compound 69] | 85 to 94% | 85 to 94% | 95 to 100% | 95 to 100% | 95 to 100% | 95 to 100% | 95 to 100% | 95 to 100% | 95 to 100% | 95 to 100% | 95 to 100% | 95 to 100% | 95 to 100% | 95 to 100% | 85 to 94% | 45 to 59% | 95 to 100% | 95 to 100% | 95 to 100% | 95 to 100% | pest or weed control at 70 g/ha [2, 10]: 60 to 74%; pest or weed control at 140 g/ha [2, 13]: 95 to 100%; pest or weed control at 70 g/ha [2, 14]: 0 to 29%; pest or weed control at 140 g/ha [2, 14]: 0 to 29%; pest or weed control at 70 g/ha [2, 15]: 95 to 100%; pest or weed control at 140 g/ha [2, 15]: 95 to 100%; pest or weed control at 70 g/ha [2, 16]: 95 to 100%; pest or weed control at 140 g/ha [2, 16]: 95 to 100%; pest or weed control at 70 g/ha [2, 17]: 75 to 84%; pest or weed control at 140 g/ha [2, 17]: 75 to 84%; melting point: 159 to 161 °C
COC(=O)c1nc(-c2cc(F)c(I)cc2F)c(F)c(N)c1Cl [Compound 55, methyl 4-amino-3-chloro-6-(2,5-difluoro-4-iodophenyl)-5-fluoropicolinate] | 95 to 100% | 95 to 100% | 95 to 100% | 95 to 100% | 95 to 100% | 95 to 100% | 95 to 100% | 95 to 100% | 95 to 100% | 95 to 100% | 95 to 100% | 95 to 100% | 95 to 100% | 95 to 100% | 95 to 100% | 95 to 100% | 95 to 100% | 85 to 94% | 85 to 94% | 95 to 100% | pest or weed control at 140 g/ha [2, 13]: 95 to 100%; pest or weed control at 70 g/ha [2, 14]: 0 to 29%; pest or weed control at 140 g/ha [2, 14]: 0 to 29%; pest or weed control at 70 g/ha [2, 15]: 95 to 100%; pest or weed control at 140 g/ha [2, 15]: 95 to 100%; pest or weed control at 70 g/ha [2, 16]: 85 to 94%; pest or weed control at 140 g/ha [2, 16]: 95 to 100%; pest or weed control at 70 g/ha [2, 17]: 60 to 74%; pest or weed control at 140 g/ha [2, 17]: 85 to 94%; melting point: 142 to 144 °C
COC(=O)c1nc(-c2cc(F)c(I)cc2F)cc(N)c1Cl [Compound 56] | 95 to 100% | 95 to 100% | 95 to 100% | 95 to 100% | 85 to 94% | 85 to 94% | 95 to 100% | 95 to 100% | 95 to 100% | 95 to 100% | 75 to 84% | 85 to 94% | 95 to 100% | 95 to 100% | 60 to 74% | 95 to 100% | 95 to 100% | 75 to 84% | 85 to 94% | 95 to 100% | pest or weed control at 70 g/ha [2, 10]: 60 to 74%; pest or weed control at 140 g/ha [2, 13]: 95 to 100%; pest or weed control at 70 g/ha [2, 14]: 0 to 29%; pest or weed control at 140 g/ha [2, 14]: 0 to 29%; pest or weed control at 70 g/ha [2, 15]: 95 to 100%; pest or weed control at 140 g/ha [2, 15]: 95 to 100%; pest or weed control at 70 g/ha [2, 16]: 75 to 84%; pest or weed control at 140 g/ha [2, 16]: 85 to 94%; pest or weed control at 70 g/ha [2, 17]: 85 to 94%; pest or weed control at 140 g/ha [2, 17]: 85 to 94%; melting point: 142 to 144 °C
C=Cc1c(C(=O)OC)nc(-c2ccc(Br)cc2)c(F)c1N [Compound 57, methyl 4-amino-6-(4-bromophenyl)-5-fluoro-3-vinylpicolinate] | 85 to 94% | 85 to 94% | 85 to 94% | 95 to 100% | 60 to 74% | 75 to 84% | 85 to 94% | 85 to 94% | 85 to 94% | 85 to 94% | 85 to 94% | 85 to 94% | 0 to 29% | 0 to 29% | 0 to 29% | 95 to 100% | 95 to 100% | 0 to 29% | 0 to 29% | 0 to 29% | pest or weed control at 70 g/ha [2, 10]: 0 to 29%; pest or weed control at 140 g/ha [2, 13]: 0 to 29%; pest or weed control at 70 g/ha [2, 14]: 0 to 29%; pest or weed control at 140 g/ha [2, 14]: 0 to 29%; pest or weed control at 70 g/ha [2, 15]: 0 to 29%; pest or weed control at 140 g/ha [2, 15]: 0 to 29%; pest or weed control at 70 g/ha [2, 16]: 75 to 84%; pest or weed control at 140 g/ha [2, 16]: 95 to 100%; pest or weed control at 70 g/ha [2, 17]: 0 to 29%; pest or weed control at 140 g/ha [2, 17]: 0 to 29%; melting point: 93 to 94 °C
